Results from patent publication US11109593B2, “Isoxazolin-5-one derivative and herbicide containing same as active ingredient” (HOKKO CHEMICAL INDUSTRY CO., LTD., priority 2017, dated 2021).

Experiments:
Format in all cases: in vivo
[1] = system: broad leaf weeds (Lindernia pyxidaria and Monochoria vaginalis); assay: Test Example 2: herbicidal effect test by treatment during growing period in paddy rice cultivation (seven days after seeding); conditions: 120 g/10a active ingredient, assessed 14 days after treatment, dry weight vs untreated area
How it was run: (§1)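 Sow 30 seeds per species (0–1 cm) into puddled, fertilized paddy soil; keep flooded ~3 cm in greenhouse. Day 7 after seeding: drop water-diluted emulsion, 120 g a.i./10 ares. Harvest 14 d post-treatment; compare dry weight with untreated pots (duplicate).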

Echinochloa crus-galli [2] = assay: as above; conditions: 120 g/10a active ingredient, assessed 14 days after treatment, dry weight vs untreated area
How it was run: as §1

Scirpus juncoides [3] = assay: as above; conditions: 120 g/10a active ingredient, assessed 14 days after treatment, dry weight vs untreated area
How it was run: as §1

Echinochloa crus-galli [4] = assay: Test Example 3: herbicidal effect test by treatment of dry field farming soil (one day after seeding); conditions: 120 g/10a active ingredient, evaluated 14 days after treatment
How it was run: (§2)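 Weeds were seeded into the upper soil layer of alluvial field soil and, one day afterwards, the soil surface was sprayed with water-diluted emulsion delivering 120 g active ingredient per 10 ares. Mean plant dry weight relative to untreated pots after 14 days gave the herbicidal rate, tested in duplicate.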

Chenopodium album [5] = assay: as above; conditions: 120 g/10a active ingredient, evaluated 14 days after treatment
How it was run: as §2

Amaranthus viridis [6] = assay: as above; conditions: 120 g/10a active ingredient, evaluated 14 days after treatment
How it was run: as §2

southern crabgrass [7] = assay: as above; conditions: 120 g/10a active ingredient, evaluated 14 days after treatment
How it was run: as §2

Echinochloa crus-galli [8] = assay: Test Example 4: herbicidal effect test by treatment of leave and stem in dry field farming (seven days after seeding); conditions: 120 g/10a active ingredient; emulsion sprayed seven days after seeding; evaluated 14 days after treatment
How it was run: (§3)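 Weeds were seeded at 20 seeds per species into the top 1 cm of alluvial upland soil in pots, then sprayed 7 days after seeding with water-diluted emulsifiable concentrate at 100 L/10 a, giving 120 g active ingredient/10 a. Duplicate pots; herbicidal rate (%) was 14 days post-treatment, from dry weight versus untreated.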

Chenopodium album [9] = assay: as above; conditions: 120 g/10a active ingredient; emulsion sprayed seven days after seeding; evaluated 14 days after treatment
How it was run: as §3

Amaranthus viridis [10] = assay: as above; conditions: 120 g/10a active ingredient; emulsion sprayed seven days after seeding; evaluated 14 days after treatment
How it was run: as §3

southern crabgrass [11] = assay: as above; conditions: 120 g/10a active ingredient; emulsion sprayed seven days after seeding; evaluated 14 days after treatment
How it was run: as §3

[12] = system: broad leaf weeds (Lindernia pyxidaria and Monochoria vaginalis); assay: Test Example 1: herbicidal effect test by treatment of rice paddy soil (immediately after seeding); conditions: 120 g/10a active ingredient, dry weight vs untreated area, 14 days after treatment
How it was run: (§4)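 Values are herbicidal rates (%) derived from average plant dry weight in treated versus untreated pots 14 days after treatment, run in duplicate. Treatment was a water-diluted emulsion dropped into flooded paddy soil right after sowing, at 120 g active ingredient per 10 ares.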

Echinochloa crus-galli [13] = assay: as above; conditions: 120 g/10a active ingredient, dry weight vs untreated area, 14 days after treatment
How it was run: as §4

Scirpus juncoides [14] = assay: as above; conditions: 120 g/10a active ingredient, dry weight vs untreated area, 14 days after treatment
How it was run: as §4

Row | Compound | Herbicidal rate (%) Lindernia pyxidaria [1] | Herbicidal rate (%) Monochoria vaginalis [1] | Herbicidal rate (%) Echinochloa crus-galli (Echinochloa crus-galli [2]) | Herbicidal rate (%) Scirpus juncoides (Scirpus juncoides [3]) | herbicidal rate, Echinochloa crus-galli (Echinochloa crus-galli [4]) | herbicidal rate, Chenopodium album (Chenopodium album [5]) | herbicidal rate, Amaranthus viridis (Amaranthus viridis [6]) | herbicidal rate, southern crabgrass (southern crabgrass [7]) | herbicidal effect (herbicidal rate), Echinochloa crus-galli (Echinochloa crus-galli [8]) | herbicidal effect (herbicidal rate), Chenopodium album (Chenopodium album [9]) | herbicidal effect (herbicidal rate), Amaranthus viridis (Amaranthus viridis [10]) | herbicidal effect (herbicidal rate), southern crabgrass (southern crabgrass [11]) | Herbicidal rate (%) Lindernia pyxidaria [12] | Herbicidal rate (%) Monochoria vaginalis [12] | Herbicidal rate (%) Echinochloa crus-galli (Echinochloa crus-galli [13]) | Herbicidal rate (%) Scirpus juncoides (Scirpus juncoides [14])
1 | COCC(C)n1oc(=O)c(Cc2ccccc2N(C(=O)C2CC2)S(=O)(=O)C(F)(F)F)c1C (stereo not shown) [Compound 1-412] | 90% | 90% | 90% | 90% | 90% | 90% | 90% | 90% | 90% | 40% | 40% | 90% | 90% | 90% | 90% | 90%
2 | CSCCn1oc(=O)c(Cc2ccccc2N(C(=O)C2CC2)S(=O)(=O)C(F)(F)F)c1C [Compound 1-413] | 90% | 90% | 90% | 90% | 90% | 90% | 90% | 90% | 90% | 40% | 40% | 90% | 90% | 90% | 90% | 90%
3 | Cc1c(Cc2ccccc2N(C(=O)C2CC2)S(=O)(=O)C(F)(F)F)c(=O)on1C(C)c1ccccc1 (stereo not shown) [Compound 1-416] | 90% | 90% | 90% | 90% | 90% | 90% | 90% | 90% | 90% | 40% | 40% | 90% | 90% | 90% | 90% | 90%
4 | Cc1c(Cc2ccccc2N(C(=O)C2CCCCC2)S(=O)(=O)C(F)(F)F)c(=O)on1C(C)(C)C [Compound 1-431] | 90% | 90% | 90% | 90% | 90% | 90% | 90% | 90% | 90% | 40% | 40% | 90% | 90% | 90% | 90% | 90%
5 | CCC(C)n1oc(=O)c(Cc2ccccc2N(C(=O)C2CCCCC2)S(=O)(=O)C(F)(F)F)c1C (stereo not shown) [Compound 1-432] | 90% | 90% | 90% | 90% | 90% | 90% | 90% | 90% | 90% | 40% | 40% | 90% | 90% | 90% | 90% | 90%
6 | COCC(C)n1oc(=O)c(Cc2ccccc2N(C(=O)C2CCCCC2)S(=O)(=O)C(F)(F)F)c1C (stereo not shown) [Compound 1-434] | 90% | 90% | 90% | 90% | 90% | 90% | 90% | 90% | 90% | 40% | 40% | 90% | 90% | 90% | 90% | 90%
7 | CCC(C)n1oc(=O)c(Cc2ccccc2N(C(=O)COC)S(=O)(=O)C(F)(F)F)c1C (stereo not shown) [Compound 1-444] | 90% | 90% | 90% | 90% | 90% | 90% | 90% | 90% | 90% | 40% | 40% | 90% | 90% | 90% | 90% | 90%
8 | Cc1c(Cc2ccccc2N(C(=O)c2ccccc2)S(=O)(=O)C(F)(F)F)c(=O)on1C(C)(C)C [Compound 1-473] | 90% | 90% | 90% | 90% | 90% | 90% | 90% | 90% | 90% | 40% | 40% | 90% | 90% | 90% | 90% | 90%
9 | CCC(C)n1oc(=O)c(Cc2ccccc2N(C(=O)c2ccccc2)S(=O)(=O)C(F)(F)F)c1C (stereo not shown) [Compound 1-474] | 90% | 90% | 90% | 90% | 90% | 90% | 90% | 90% | 90% | 40% | 40% | 90% | 90% | 90% | 90% | 90%
10 | COCC(C)n1oc(=O)c(Cc2ccccc2N(C(=O)c2ccccc2)S(=O)(=O)C(F)(F)F)c1C (stereo not shown) [Compound 1-479] | 90% | 90% | 90% | 90% | 90% | 90% | 90% | 90% | 90% | 40% | 40% | 90% | 90% | 90% | 90% | 90%
